Test system: pyrexia induced by intravenous reference standard endotoxin (RSE) in healthy males
Type: in vivo, human
Conditions: for WSTD0-2 h, Treatment difference vs. Placebo / WSTD0-4 h, Treatment difference vs. Placebo / WSTD0-6 h, Treatment difference vs. Placebo / WSTD0-8 h, Treatment difference vs. Placebo / WSTD6-8 h, Treatment difference vs. Placebo / WSTD50-110 min, Treatment difference vs. Placebo / WSTD80-110 min, Treatment difference vs. Placebo / Period post dose in which subjects' temperatures were significantly reduced relative to placebo / Headache due to RSE, subjects / Nausea due to RSE, subjects / Pyrexia, AE considered related to RSE, subjects: APAP 500 mg; for WSTD50-110 min, LSM / WSTD50-110 min, Mean / WSTD80-110 min, LSM / WSTD80-110 min, Mean: post hoc analysis; for WSTD50-110 min, LSM / WSTD50-110 min, Mean / WSTD80-110 min, LSM / WSTD80-110 min, Mean / WSTD0-2 h, Mean (SD) / WSTD0-4 h, Mean (SD) / WSTD0-6 h, Mean (SD) / WSTD6-8 h, Mean (SD) / WSTD0-8 h, Mean (SD): IBU dose 250 mg, APAP dose 500 mg; for Period post dose in which subjects' temperatures were significantly reduced relative to placebo / WSTD0-2 h, Mean (SD) / WSTD0-4 h, Mean (SD) / WSTD0-6 h, Mean (SD) / WSTD6-8 h, Mean (SD) / WSTD0-8 h, Mean (SD): single oral dose; for WSTD0-8 h, Mean (SD): primary efficacy endpoint; for Headache due to RSE, subjects / Nausea due to RSE, subjects / Pyrexia, AE considered related to RSE, subjects: study drug treatment period
Procedure: This study evaluated the antipyretic efficacy, onset of effect and tolerability of a single dose of FDC IBU/APAP 250 mg/500 mg compared with placebo and each monocomponent at the same dose.
This was a single-center, randomized, double-blind, placebo-controlled, full-factorial study in healthy males aged 18-55 years in whom pyrexia was induced by intravenous administration of a reference standard endotoxin (RSE). After RSE administration and attainment of an oral temperature ≥100.5° F. (38.1° C.), subjects were randomized 3:3:3:1 to receive a single oral dose of FDC IBU/APAP 250 mg/500 mg, APAP 500 mg, IBU 250 mg, or placebo in double-blind fashion. Oral temperature was subsequently measured every 10 minutes for the first 2 hours and then every 30 minutes until 8 hours post dose. Time-weighted sum of temperature differences from baseline to 8 hours (WSTD0-8) after study medication administration was the primary efficacy endpoint. Secondary endpoints included WSTD scores from 0-2, 0-4, 0-6, and 6-8 hours; time to return to “normal” temperature; time to rescue medication use; global drug evaluation. Safety was monitored and assessed via adverse events (AEs).
This was a single-center, randomized, double-blind, placebo-controlled, full-factorial single-dose study in subjects in whom pyrexia was induced by intravenous (IV) administration of a reference standard endotoxin (RSE). In this standardized model, fever was induced by endotoxin (gram-negative bacterial lipopolysaccharide) derived from Escherichia coli O113, which was developed as a national biological reference standard in 1976 by the National Institute of Allergy and Infectious Diseases and the US Food and Drug Administration. The RSE used in this study was supplied by List Biological Laboratories, Inc. (Campbell, CA, USA).
Subject eligibility was determined at a screening visit within 28 days prior to study drug treatment; eligible subjects were assigned sequential subject numbers by the investigator. Subjects were healthy males aged 18-55 years, inclusive, with a normal, stable body temperature at screening and day 0, body mass index of 17.5-37.0 kg/m^2, and total body weight ≥50 kg at screening, demonstrably adequate veins for IV catheter insertion, and who were willing and able to comply with all study procedures. […] Female subjects were not enrolled due to potential teratogenicity concerns associated with the use of the RSE.
Subjects entered the study center on day 0 to confirm eligibility, i.e., afebrile state, defined as a mean oral temperature 97.4° F. to 98.8° F. not varying by more than 0.4° F. on 3 repeated measures over 30 minutes and still meeting inclusion/exclusion criteria. Subjects who remained eligible for the study remained in-house until after completion of all study procedures.
Subjects received prophylactic ondansetron, 8 mg intravenously, approximately 30 minutes prior to administration of the RSE to reduce the likelihood of nausea and vomiting. Prior to RSE administration, changes to prior treatments were recorded; blood pressure and HR were measured; and a 12-lead ECG was obtained. Oral temperatures were recorded, with “normal” for each subject being the temperature recorded immediately prior to RSE administration.
Subject eligibility Subject assessments included physical examination, vital sign measurement, ECG evaluation, and laboratory studies (hematology, serum chemistry, urinalysis). The baseline oral temperature was defined as the temperature reading obtained immediately prior to administration of study medication, after the subject had reached an RSE-induced oral temperature ≥100.5° F. (38.1° C.) that was required for randomization. After randomization and study medication administration, oral temperature was measured using a standardized electronic digital thermometer every 10 minutes for the first 2 hours, and then every 30 minutes until 8 hours post dose. Subjects were assessed for emergence of AEs at each temperature evaluation time point. […]

[1] = first minus second treatment, IBU 250 mg

SMILES | WSTD0-2 h, Treatment difference vs. Placebo [1] | WSTD0-4 h, Treatment difference vs. Placebo [1] | WSTD0-6 h, Treatment difference vs. Placebo [1] | WSTD0-8 h, Treatment difference vs. Placebo [1] | WSTD6-8 h, Treatment difference vs. Placebo [1] | WSTD50-110 min, LSM | WSTD50-110 min, Mean | WSTD80-110 min, LSM | WSTD80-110 min, Mean | WSTD50-110 min, Treatment difference vs. Placebo (post hoc, IBU 250 mg) | WSTD80-110 min, Treatment difference vs. Placebo (post hoc, IBU 250 mg) | Period post dose in which subjects' temperatures were significantly reduced relative to placebo (IBU 250 mg) [min] | WSTD0-2 h, Mean (SD) | WSTD0-4 h, Mean (SD) | WSTD0-6 h, Mean (SD) | WSTD6-8 h, Mean (SD) | WSTD0-8 h, Mean (SD) | Headache due to RSE, subjects (IBU 250 mg) [%] | Nausea due to RSE, subjects (IBU 250 mg) [%] | Pyrexia, AE considered related to RSE, subjects (IBU 250 mg) [%] | other results
CC(=O)Nc1ccc(O)cc1 [APAP, N-(4-hydroxyphenyl)acetamide] | 0.60 | 1.42 | 1.92 | 2.35 | 0.53 | 0.135 | 0.19 | 0.192 | 0.23 | 0.406 | 0.253 | 100 to 270 | 0.21 (1.73) | 3.41 (3.17) | 7.65 (4.60) | 5.84 (2.33) | 12.39 (6.28) | 5.7 | 9.2 | 29.9 | 
CC(C)Cc1ccc(C(C)C(=O)O)cc1 (stereo not shown) [IBU, 2-(4-isobutylphenyl) propionic acid] | 0.51 | 1.26 | 1.83 | 2.23 | 0.51 | 0.103 | −0.02 | 0.190 | 0.13 | 0.374 | 0.251 | 100 to 180 | −0.19 (1.86) | 2.61 (3.34) | 6.65 (4.79) | 5.49 (2.26) | 11.09 (6.35) | 14.9 | 12.6 | 41.4 | Subjects who took rescue medication (8-hour treatment period, IBU 250 mg): 1 subject; Global Evaluation of study medication as a fever reducer, in words (ANCOVA analysis, 6-point scale, P<0.05): rated their treatment significantly higher than those in the placebo group; WSTD0-2 h, Treatment difference vs. APAP 500 mg [1]: −0.09; WSTD0-4 h, Treatment difference vs. APAP 500 mg [1]: −0.16; WSTD0-6 h, Treatment difference vs. APAP 500 mg [1]: −0.09; WSTD0-8 h, Treatment difference vs. APAP 500 mg [1]: −0.12; WSTD6-8 h, Treatment difference vs. APAP 500 mg [1]: −0.01; WSTD50-110 min, Treatment difference vs. APAP 500 mg (post hoc, IBU 250 mg): −0.032; WSTD80-110 min, Treatment difference vs. APAP 500 mg (post hoc, IBU 250 mg): −0.002
